Experimental data from paper PMC7000700, “RyR1-targeted drug discovery pipeline integrating FRET-based high-throughput screening and human myofiber dynamic Ca^2+ assays” (Scientific Reports, 2020).
Entries after “also recorded” stand apart in the source; their conditions may differ.

Experiments:
[1] = system: RyR1 Ca^2+ leak in human skinned skeletal muscle fibers; assay: t-system Ca2+ readout of RyR1 Ca2+ leak in human mechanically skinned skeletal muscle fibers; details: for Reduction of RyR1 Ca2+ leak: at identified compound concentrations that only slightly affected Ca2+ release in EC coupling
RyR1 = RyR1 (Sus scrofa, UniProt P16960); assay: FLT-FRET between D-FKBP and A-CaM bound to RyR1 in skeletal SR membranes (HTS and dose-response); assay type: binding, porcine; parameters: RyR1 in skeletal SR membranes, and RyR2 in cardiac SR membranes; from tissue; host or cells: porcine longissimus dorsi muscle (heavy SR vesicles); details: 30 nM Ca2+; for Effect on FRET: RyR1 samples, micromolar compound, GSSG or GSH
Chain of RyR1 (P16960 whole entry): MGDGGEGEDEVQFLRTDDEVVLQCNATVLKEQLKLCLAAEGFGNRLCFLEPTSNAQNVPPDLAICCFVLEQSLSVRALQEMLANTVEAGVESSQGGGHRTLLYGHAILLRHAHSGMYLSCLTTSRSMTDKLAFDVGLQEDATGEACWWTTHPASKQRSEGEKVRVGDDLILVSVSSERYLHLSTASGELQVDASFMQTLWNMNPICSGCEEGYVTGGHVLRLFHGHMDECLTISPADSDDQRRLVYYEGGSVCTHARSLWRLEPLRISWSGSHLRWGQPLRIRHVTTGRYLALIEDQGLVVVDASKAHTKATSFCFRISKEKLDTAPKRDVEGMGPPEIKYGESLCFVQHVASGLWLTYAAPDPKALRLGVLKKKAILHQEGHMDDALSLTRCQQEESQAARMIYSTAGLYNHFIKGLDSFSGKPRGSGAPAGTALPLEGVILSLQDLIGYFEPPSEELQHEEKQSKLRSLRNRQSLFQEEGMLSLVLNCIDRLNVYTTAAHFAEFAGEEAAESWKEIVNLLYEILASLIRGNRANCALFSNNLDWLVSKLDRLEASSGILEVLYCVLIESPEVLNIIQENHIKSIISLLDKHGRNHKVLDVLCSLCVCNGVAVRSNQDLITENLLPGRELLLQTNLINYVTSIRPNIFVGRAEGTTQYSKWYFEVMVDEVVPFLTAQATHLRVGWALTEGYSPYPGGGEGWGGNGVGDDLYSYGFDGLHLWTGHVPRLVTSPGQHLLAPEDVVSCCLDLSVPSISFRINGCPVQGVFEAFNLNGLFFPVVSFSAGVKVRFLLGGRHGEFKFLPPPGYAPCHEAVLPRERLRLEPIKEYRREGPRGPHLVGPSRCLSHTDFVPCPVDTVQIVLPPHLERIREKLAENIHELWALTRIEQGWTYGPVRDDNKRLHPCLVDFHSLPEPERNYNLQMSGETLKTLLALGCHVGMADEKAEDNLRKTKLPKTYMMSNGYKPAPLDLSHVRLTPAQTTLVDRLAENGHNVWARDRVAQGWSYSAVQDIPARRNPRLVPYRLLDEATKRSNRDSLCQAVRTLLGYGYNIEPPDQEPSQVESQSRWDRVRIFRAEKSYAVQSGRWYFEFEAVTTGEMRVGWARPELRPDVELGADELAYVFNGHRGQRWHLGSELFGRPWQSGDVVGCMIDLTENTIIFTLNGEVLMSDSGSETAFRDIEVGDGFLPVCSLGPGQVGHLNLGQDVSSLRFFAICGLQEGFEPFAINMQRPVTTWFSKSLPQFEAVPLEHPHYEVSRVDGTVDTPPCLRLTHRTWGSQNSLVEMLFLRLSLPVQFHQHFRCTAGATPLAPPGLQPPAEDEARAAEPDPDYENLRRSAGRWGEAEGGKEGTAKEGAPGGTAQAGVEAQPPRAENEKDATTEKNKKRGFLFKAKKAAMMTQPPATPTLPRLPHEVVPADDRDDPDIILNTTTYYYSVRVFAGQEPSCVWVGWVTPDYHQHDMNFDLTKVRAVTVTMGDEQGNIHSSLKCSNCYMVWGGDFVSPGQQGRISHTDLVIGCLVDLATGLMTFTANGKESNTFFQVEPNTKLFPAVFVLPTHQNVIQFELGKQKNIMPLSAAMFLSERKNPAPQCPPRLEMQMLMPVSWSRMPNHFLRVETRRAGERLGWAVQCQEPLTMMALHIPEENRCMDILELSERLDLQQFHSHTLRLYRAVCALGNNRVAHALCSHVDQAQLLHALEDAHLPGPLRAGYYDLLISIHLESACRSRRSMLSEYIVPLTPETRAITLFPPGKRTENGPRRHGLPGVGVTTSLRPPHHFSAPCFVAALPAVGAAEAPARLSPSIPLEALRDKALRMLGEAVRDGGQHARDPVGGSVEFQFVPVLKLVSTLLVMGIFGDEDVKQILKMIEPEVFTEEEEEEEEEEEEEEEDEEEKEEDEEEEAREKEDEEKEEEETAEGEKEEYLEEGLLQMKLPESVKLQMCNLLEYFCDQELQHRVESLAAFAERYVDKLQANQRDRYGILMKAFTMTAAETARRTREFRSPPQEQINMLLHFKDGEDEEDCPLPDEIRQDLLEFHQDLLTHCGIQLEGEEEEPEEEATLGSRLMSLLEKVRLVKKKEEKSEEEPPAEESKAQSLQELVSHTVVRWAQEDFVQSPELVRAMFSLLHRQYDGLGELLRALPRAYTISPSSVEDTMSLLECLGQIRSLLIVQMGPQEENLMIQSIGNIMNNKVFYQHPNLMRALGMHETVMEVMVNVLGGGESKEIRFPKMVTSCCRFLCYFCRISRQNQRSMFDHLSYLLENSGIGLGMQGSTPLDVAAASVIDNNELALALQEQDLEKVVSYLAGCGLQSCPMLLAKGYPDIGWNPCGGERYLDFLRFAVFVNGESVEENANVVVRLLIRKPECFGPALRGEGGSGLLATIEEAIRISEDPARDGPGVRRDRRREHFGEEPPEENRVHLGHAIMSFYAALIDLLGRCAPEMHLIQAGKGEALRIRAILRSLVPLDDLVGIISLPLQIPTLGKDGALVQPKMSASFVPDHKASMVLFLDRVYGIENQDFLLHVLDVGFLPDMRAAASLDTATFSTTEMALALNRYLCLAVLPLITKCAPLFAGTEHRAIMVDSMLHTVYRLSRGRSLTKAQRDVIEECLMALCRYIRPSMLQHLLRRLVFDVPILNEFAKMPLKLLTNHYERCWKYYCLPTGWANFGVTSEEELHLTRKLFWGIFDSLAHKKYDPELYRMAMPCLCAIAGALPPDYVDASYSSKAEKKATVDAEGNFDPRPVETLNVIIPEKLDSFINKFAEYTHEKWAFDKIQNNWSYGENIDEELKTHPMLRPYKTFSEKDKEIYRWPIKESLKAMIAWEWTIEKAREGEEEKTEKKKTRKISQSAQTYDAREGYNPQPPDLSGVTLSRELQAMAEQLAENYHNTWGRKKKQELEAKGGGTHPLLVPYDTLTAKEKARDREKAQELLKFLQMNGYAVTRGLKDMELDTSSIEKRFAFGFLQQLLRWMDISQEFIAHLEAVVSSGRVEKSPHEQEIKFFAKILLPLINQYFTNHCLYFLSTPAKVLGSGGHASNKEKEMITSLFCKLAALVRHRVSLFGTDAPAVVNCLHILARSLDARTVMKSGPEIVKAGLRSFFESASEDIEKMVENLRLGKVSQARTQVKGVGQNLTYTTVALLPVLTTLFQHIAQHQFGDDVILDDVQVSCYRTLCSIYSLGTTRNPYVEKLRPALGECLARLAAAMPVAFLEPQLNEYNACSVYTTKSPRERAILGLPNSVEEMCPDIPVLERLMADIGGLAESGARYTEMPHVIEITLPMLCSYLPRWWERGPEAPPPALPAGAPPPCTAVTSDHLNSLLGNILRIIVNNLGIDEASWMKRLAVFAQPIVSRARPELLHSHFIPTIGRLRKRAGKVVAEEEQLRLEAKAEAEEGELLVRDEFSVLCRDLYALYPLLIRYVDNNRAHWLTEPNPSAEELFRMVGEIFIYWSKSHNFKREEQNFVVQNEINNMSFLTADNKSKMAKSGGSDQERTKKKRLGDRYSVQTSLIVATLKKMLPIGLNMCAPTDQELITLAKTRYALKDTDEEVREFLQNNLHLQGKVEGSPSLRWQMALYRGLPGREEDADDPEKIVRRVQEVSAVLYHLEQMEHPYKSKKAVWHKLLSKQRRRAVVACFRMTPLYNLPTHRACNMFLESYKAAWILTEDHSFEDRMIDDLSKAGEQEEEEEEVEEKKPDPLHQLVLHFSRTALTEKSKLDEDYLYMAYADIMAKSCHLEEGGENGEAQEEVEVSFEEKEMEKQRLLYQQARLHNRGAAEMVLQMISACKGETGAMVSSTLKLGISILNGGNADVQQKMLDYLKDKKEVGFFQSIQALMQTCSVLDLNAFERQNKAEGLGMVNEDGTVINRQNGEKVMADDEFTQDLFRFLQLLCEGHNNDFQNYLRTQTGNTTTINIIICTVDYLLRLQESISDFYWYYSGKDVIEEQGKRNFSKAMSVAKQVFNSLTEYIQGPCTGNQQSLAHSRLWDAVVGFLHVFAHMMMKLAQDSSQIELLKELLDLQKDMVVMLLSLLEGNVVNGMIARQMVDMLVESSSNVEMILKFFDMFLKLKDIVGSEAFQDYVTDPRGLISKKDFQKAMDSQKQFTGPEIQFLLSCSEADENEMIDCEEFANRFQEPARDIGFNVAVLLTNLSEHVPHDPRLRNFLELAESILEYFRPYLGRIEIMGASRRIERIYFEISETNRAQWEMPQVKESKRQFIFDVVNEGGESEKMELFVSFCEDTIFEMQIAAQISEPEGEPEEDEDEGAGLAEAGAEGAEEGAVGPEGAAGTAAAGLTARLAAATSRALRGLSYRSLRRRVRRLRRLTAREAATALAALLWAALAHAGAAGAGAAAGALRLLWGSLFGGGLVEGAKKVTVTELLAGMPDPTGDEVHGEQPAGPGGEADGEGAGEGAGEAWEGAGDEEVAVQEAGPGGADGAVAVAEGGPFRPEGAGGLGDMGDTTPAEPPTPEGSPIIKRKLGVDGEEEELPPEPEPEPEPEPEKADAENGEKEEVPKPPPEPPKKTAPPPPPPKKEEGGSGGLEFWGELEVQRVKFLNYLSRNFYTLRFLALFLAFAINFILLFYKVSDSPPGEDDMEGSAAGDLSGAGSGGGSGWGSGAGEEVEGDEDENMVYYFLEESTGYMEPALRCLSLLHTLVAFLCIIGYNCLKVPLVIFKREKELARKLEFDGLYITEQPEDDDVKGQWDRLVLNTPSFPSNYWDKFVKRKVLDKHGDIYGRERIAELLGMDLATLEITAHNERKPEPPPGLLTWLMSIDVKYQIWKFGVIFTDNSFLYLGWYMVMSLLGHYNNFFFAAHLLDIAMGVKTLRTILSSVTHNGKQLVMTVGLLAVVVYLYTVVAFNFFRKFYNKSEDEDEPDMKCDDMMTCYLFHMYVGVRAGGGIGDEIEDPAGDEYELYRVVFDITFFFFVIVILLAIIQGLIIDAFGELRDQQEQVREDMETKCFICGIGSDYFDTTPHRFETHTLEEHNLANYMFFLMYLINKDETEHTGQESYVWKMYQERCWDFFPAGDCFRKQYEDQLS
Experimental: To confer compatibility with current HTS standards in industrial drug discovery facilities, we miniaturized our screening format from the previously established 384-well plates, requiring 50 μL sample per well[19], to 1536-well plates, requiring 5 μL sample per well. The complete 1280-compound library of pharmacologically active compounds (LOPAC) was applied as 5 nL/well in 40 columns of one 1536-well black-wall/black-bottom plate, with the remaining 8 columns loaded with 5 nL/well of DMSO, as no-drug controls. For each run of the screen, three plates were loaded with either (1) unlabeled HSR, or (2) HSR pre-incubated with donor-FKBP (D-FKBP; donor-only sample), or (3) donor-only sample that was additionally incubated with 0.3 μM acceptor-CaM (A-CaM) for 60 min prior to loading on the plate (donor-acceptor sample). This sub-saturating concentration of A-CaM was used to provide a readout that is sensitive to library compounds that may increase or decrease CaM binding affinity to RyR. To promote a homogenous population of RyR1 resembling that associated with myopathies, final assay conditions also included 30 nM Ca^2+ to represent resting (muscle relaxing) Ca^2+, and 5 mM oxidized glutathione (GSSG), which exaggerates the conditions associated with oxidative stress.
We acquired both FLT waveforms and fluorescence spectra, as previously described[19],[33],[34]. As previously observed, Hit effects were greatest following a 2-hour incubation with the library compounds (Supplementary Fig. 1a). As a result, all FRET results shown in Figs. 1 and 2, and Supplementary Fig. 2 are reported from the 2-hour incubation.
Necessary counter-screens to our pathological RyR1 conditions include evaluating compound effects in healthy conditions and on the cardiac isoform, RyR2. Using the same FRET assay as in HTS, we tested the dose response of key Hits from this screen and the previously HTS-identified RyR1 inhibitor, chloroxine, on healthy (5 mM GSH) and pathological (5 mM GSSG) conditions for both RyR1 in skeletal SR membranes, and RyR2 in cardiac SR membranes.
Skeletal HSR and cardiac CSR (0.4 mg/ml) membranes were independently pre-incubated with 60 nM D-FKBP, for 90 min, at 37 °C, in a solution containing 150 mM KCl, 5 mM GSH, 0.1 mg/mL BSA, 1 µg/mL Aprotinin/Leupeptin, 1 mM DTT and 20 mM PIPES (pH 7.0). To remove unbound D-FKBP, the SR membranes were spun down at 110,000 × g for 20 min, and then resuspended to 1 mg/mL (skeletal HSR) and 2 mg/mL (cardiac CSR) in binding buffer consisting of 150 mM KCl, 5 mM GSSG, 0.1 mg/mL BSA, 1μg/mL Aprotinin/Leupeptin and 20 mM PIPES, pH 7.0. These samples were then incubated with indicated [A-CaM] for 30 min at 22 °C in binding buffer containing 0.065 mM CaCl2 to give 30 nM free Ca^2+ in the presence of 1 mM EGTA (calculated by MaxChelator). This labeled SR sample was applied to the assay plates in 5 μL aliquots using a Multidrop™ Combi reagent dispenser (Thermo Scientific) with a standard-tube. An additional set of the assay plates were loaded with skeletal HSR or cardiac CSR labeled with only D-FKBP (no added A-CaM).
FLT measurements were conducted in a top-read FLT-PR designed and built by Fluorescence Innovations, Inc[33]. AF488 donor fluorescence was excited with a 473-nm microchip laser from Concepts Research Corporation (Belgium, WI), and emission was acquired with 490-nm long-pass and 517/20-nm band-pass filters (Semrock, Rochester, NY).
FLT waveforms for each well were fit based on a one-exponential decay function using least-squares minimization global-analysis software (Fluorescence Innovations, Inc.), as previously described[19],[33]. FRET efficiency (E) was determined as the fractional decrease of donor FLT (τD), due to the presence of acceptor fluorophore (τDA), using the following equation:1 E=1−τDA/τD, […]

[2] = 10 μM compound, 200 nM [Ca2+]cyto

Compound | Effect on steady-state [Ca2+]t-sys vs control (RyR1 leak) ([1]; 100 μM compound, 200 nM [Ca2+]cyto) | Effect on steady-state [Ca2+]t-sys (RyR1 leak) ([1]; all three concentrations tested (1, 10 and 100 μM), towards level of 1 mM tetracaine) | Reduction of RyR1 Ca2+ leak [1] [%] | Effect on FRET (RyR1) | Effect on steady-state [Ca2+]t-sys vs control (RyR1 leak) ([1]; 1 μM compound, 200 nM [Ca2+]cyto) | Effect on [Ca2+]t-sys relative to RyR blocker tetracaine [1, 2] | Effect on steady-state [Ca2+]t-sys vs control (RyR1 leak) [1, 2] | Hit in primary FLT-FRET HTS of LOPAC (FRET altered by > 4 SD vs DMSO) (RyR1; 10 μM compound, 2-hour incubation, 5 mM GSSG, 0.3 μM A-CaM, 1536-well)
Oc1c(Cl)cc(Cl)c2cccnc12 [chloroxine] | statistically decreased | progressively reduced | > 50 | increased | – | – | – | –
O=c1c(O)c(-c2cc(O)c(O)c(O)c2)oc2cc(O)cc(O)c12 [myricetin] | – | – | > 50 | increases FRET | decreased | went beyond the effects of 1 mM tetracaine | decreased | identified; also recorded: increased the FRET efficiency readout
